In patent US20240398817A1, “CARDIO- AND RENOSAFE ANTIDIABETIC THERAPY” (priority 2018, published 2024):

Tested on: patients with type 2 diabetes at high vascular risk
Test: Cardiovascular and Renal Outcomes Trial: linagliptin 5 mg once daily vs placebo on top of standard of care
Assay type: in vivo
Conditions: for Hazard ratio for hospitalised heart failure: vs placebo
Experimental: The effect of linagliptin on cardiovascular risk in adult patients with type 2 diabetes mellitus and with increased CV risk evidenced by a history of established macrovascular or renal disease (e.g. as defined herein) was evaluated in a multi-center, multi-national, randomized, double-blind parallel group trial. The trial compared the risk of experiencing a major adverse cardiovascular event (MACE) between linagliptin and placebo when these were added to and used concomitantly with standard of care treatments for diabetes (HbA1c), cardiovascular risk factors and renal disease.
The primary endpoint in this trial was the time to first occurrence of three point (3P) MACE. A major adverse cardiac event was defined as a cardiovascular death or a nonfatal myocardial infarction (MI) or a nonfatal stroke. The statistical analysis plan tested for non-inferiority for the occurrence of (3P) MACE. […] The secondary endpoint was a renal composite, defined as renal death or sustained end stage renal disease or sustained decrease of 40% or more in eGFR.
Type 2 diabetes patient with insufficient glycemic control (naïve or pre-treated with any antidiabetic background medication, excluding treatment with GLP-1 receptor agonists, DPP-4inhibitors or SGLT-2 inhibitors if ≥consecutive 7 days, e.g. having HbA1c 6.5-10%), and high risk of cardiovascular events, e.g. defined by: • albuminuria (micro or macro) and previous macrovascular disease: e.g. defined according to Condition I as indicated below; • and/or • impaired renal function: e.g. as defined according to Condition II as indicated below;
Background and aims: People with type 2 diabetes (T2D) are at increased risk for hospitalization for heart failure (hHF), particularly in the setting of concomitant cardiovascular (CV) and/or kidney disease. […] Here we present analyses of HF outcomes with the DPP-4 inhibitor linagliptin (LINA) vs. placebo (PBO) from a Cardiovascular and Renal Outcomes Trial assessing cardiovascular safety and renal microvascular outcome in patients with type 2 diabetes at high vascular risk, a large CV outcomes trial that enrolled participants with T2D at high risk for hHF due to concomitant CV and/or chronic kidney disease. Materials and methods: People with T2D and concomitant CV and/or kidney disease were randomized to receive LINA 5 mg, or PBO once daily (1:1), on top of standard of care. All hHF, CV outcomes, and deaths were centrally adjudicated, with individual and composite HF-related outcomes analyses comparing LINA vs. placebo. Investigator-reported HF-related adverse events, whether or not confirmed by adjudication, were also analyzed. A Cox proportional hazards model adjusting for region and history of HF was used for analyses of first events. Recurrent hHF events were analyzed using a negative binomial model.
Methods: The present Cardiovascular and Renal Outcomes Trial randomized people with T2D and i) concomitant CV disease with UACR >30 mg/g or ii) prevalent CKD (i.e. GFR <45 ml/min/1.73m2 and/or UACR >200 mg/g) to receive the DPP-4 inhibitor linagliptin (5 mg) or placebo once daily in a double-blind fashion. The primary CV endpoint was 3P-MACE, with a key secondary kidney endpoint (adjudicated ESKD, renal death, or sustained ≥40% decrease in eGFR from baseline) and other renal outcomes (including albuminuria and eGFR slope) also assessed. Subgroups were assessed by baseline kidney function (eGFR ≥/<45 ml/min/1.73m2and eGFR ≥/<30, 45 or 60 ml/min/1.73m2).
Adults with type 2 diabetes, HbA1c 6.5-10.0% inclusive, and high CV risk were eligible for inclusion. […] Macrovascular disease eligibility criteria was based on documented and confirmed history of myocardial infarction, coronary artery disease, stroke, carotid artery disease, or peripheral artery disease. Participants with end-stage kidney disease (ESKD), defined as eGFR <15 or requiring maintenance dialysis, were excluded.

[1] = CKD prognosis by KDIGO Very high
[2] = Calcium channel blockers (CCB) No
[3] = Calcium channel blockers (CCB) Yes
[4] = Cardiorenal risk: Albuminuria and previous macrovascular disease plus eGFR 45-75 mL/min/1.73 m^2 with an UACR >200 mg/g
[5] = Cardiorenal risk: Albuminuria and previous macrovascular disease plus renal impairment (eGFR 15-<45 mL/min/1.73 m^2 with any UACR mg/g)
[6] = Cardiorenal risk: Albuminuria and previous macrovascular disease without eGFR>45 mL/min/1.73 m2
[7] = Duration of type 2 diabetes >5 to <10 years
[8] = Duration of type 2 diabetes ≤5 years

SMILES: CC#CCn1c(N2CCC[C@@H](N)C2)nc2c1c(=O)n(Cc1nc(C)c3ccccc3n1)c(=O)n2C [Linagliptin, 1-[(4-methyl-quinazolin-2-yl)methyl]-3-methyl-7-(2-butyn-1-yl)-8-(3-(R)-amino-piperidin-1-yl)-xanthine]
- 3-point MACE: hazard ratio vs placebo (Body mass index ≥30 kg/m^2): 1.06
- 3-point MACE: patients with event/patients analyzed (Body mass index ≥30 kg/m^2): 243/1978
- Key secondary kidney outcome: hazard ratio vs placebo (Body mass index ≥30 kg/m^2): 0.96
- Key secondary kidney outcome: patients with event/patients analyzed (Body mass index ≥30 kg/m^2): 165/1978
- Patients with event/patients analysed, hospitalised heart failure (Body mass index ≥30 kg/m^2): 131/1978
- Hazard ratio for hospitalised heart failure (Body mass index ≥30 kg/m^2): 0.86
- 3-point MACE: hazard ratio vs placebo (CKD prognosis by KDIGO High): 1.05
- 3-point MACE: patients with event/patients analyzed (CKD prognosis by KDIGO High): 111/995
- Key secondary kidney outcome: patients with event/patients analyzed (CKD prognosis by KDIGO High): 57/995
- Patients with event/patients analysed, hospitalised heart failure (CKD prognosis by KDIGO High): 45/995
- 3-point MACE: hazard ratio vs placebo (CKD prognosis by KDIGO Low): 1.13
- 3-point MACE: patients with event/patients analyzed (CKD prognosis by KDIGO Low): 11/232
- Key secondary kidney outcome: patients with event/patients analyzed (CKD prognosis by KDIGO Low): 8/232
- Patients with event/patients analysed, hospitalised heart failure (CKD prognosis by KDIGO Low): 2/232
- 3-point MACE: hazard ratio vs placebo (CKD prognosis by KDIGO Medium): 0.89
- 3-point MACE: patients with event/patients analyzed (CKD prognosis by KDIGO Medium): 61/766
- Key secondary kidney outcome: patients with event/patients analyzed (CKD prognosis by KDIGO Medium): 14/766
- Patients with event/patients analysed, hospitalised heart failure (CKD prognosis by KDIGO Medium): 18/766
- 3-point MACE: hazard ratio vs placebo [1]: 1.04
- 3-point MACE: patients with event/patients analyzed [1]: 250/1499
- Key secondary kidney outcome: patients with event/patients analyzed [1]: 248/1499
- Patients with event/patients analysed, hospitalised heart failure [1]: 144/1499
- Patients with event/patients analysed, hospitalised heart failure [2]: 113/2061
- Hazard ratio for hospitalised heart failure [2]: 0.86
- Patients with event/patients analysed, hospitalised heart failure [3]: 96/1433
- Hazard ratio for hospitalised heart failure [3]: 0.94
- 3-point MACE: hazard ratio vs placebo (Calcium channel blockers No): 0.91
- 3-point MACE: patients with event/patients analyzed (Calcium channel blockers No): 239/2061
- Key secondary kidney outcome: hazard ratio vs placebo (Calcium channel blockers No): 1.03
- Key secondary kidney outcome: patients with event/patients analyzed (Calcium channel blockers No): 155/2061
- 3-point MACE: hazard ratio vs placebo (Calcium channel blockers Yes): 1.21
- 3-point MACE: patients with event/patients analyzed (Calcium channel blockers Yes): 195/1433
- Key secondary kidney outcome: hazard ratio vs placebo (Calcium channel blockers Yes): 1.05
- Key secondary kidney outcome: patients with event/patients analyzed (Calcium channel blockers Yes): 172/2860
- 3-point MACE: hazard ratio vs placebo (Cardiorenal risk Cat A): 0.97
- 3-point MACE: patients with event/patients analyzed (Cardiorenal risk Cat A): 117/1361
- Key secondary kidney outcome: hazard ratio vs placebo (Cardiorenal risk Cat A): 1.22
- Key secondary kidney outcome: patients with event/patients analyzed (Cardiorenal risk Cat A): 38/1361
- 3-point MACE: hazard ratio vs placebo (Cardiorenal risk Cat B): 0.92
- 3-point MACE: patients with event/patients analyzed (Cardiorenal risk Cat B): 86/394
- Key secondary kidney outcome: hazard ratio vs placebo (Cardiorenal risk Cat B): 0.79
- Key secondary kidney outcome: patients with event/patients analyzed (Cardiorenal risk Cat B): 51/394
- 3-point MACE: hazard ratio vs placebo (Cardiorenal risk Cat C): 0.76
- 3-point MACE: patients with event/patients analyzed (Cardiorenal risk Cat C): 33/253
- Key secondary kidney outcome: hazard ratio vs placebo (Cardiorenal risk Cat C): 1.53
- Key secondary kidney outcome: patients with event/patients analyzed (Cardiorenal risk Cat C): 23/253
- 3-point MACE: hazard ratio vs placebo (Cardiorenal risk Cat D): 1.12
- 3-point MACE: patients with event/patients analyzed (Cardiorenal risk Cat D): 163/1153
- Key secondary kidney outcome: hazard ratio vs placebo (Cardiorenal risk Cat D): 1.01
- Key secondary kidney outcome: patients with event/patients analyzed (Cardiorenal risk Cat D): 180/1153
- 3-point MACE: hazard ratio vs placebo (Cardiorenal risk Cat E): 1.13
- 3-point MACE: patients with event/patients analyzed (Cardiorenal risk Cat E): 32/309
- Key secondary kidney outcome: hazard ratio vs placebo (Cardiorenal risk Cat E): 1.04
- Key secondary kidney outcome: patients with event/patients analyzed (Cardiorenal risk Cat E): 35/309
- Patients with event/patients analysed, hospitalised heart failure [4]: 67/647
- Hazard ratio for hospitalised heart failure [4]: 0.81
- Patients with event/patients analysed, hospitalised heart failure [5]: 95/14612
- Hazard ratio for hospitalised heart failure [5]: 0.86
- Patients with event/patients analysed, hospitalised heart failure [6]: 46/1361
- Hazard ratio for hospitalised heart failure [6]: 1.19
- 3-point MACE: hazard ratio vs placebo (Diuretics No): 1.15
- 3-point MACE: patients with event/patients analyzed (Diuretics No): 159/1602
- Key secondary kidney outcome: hazard ratio vs placebo (Diuretics No): 1.06
- Key secondary kidney outcome: patients with event/patients analyzed (Diuretics No): 129/1602
- Patients with event/patients analysed, hospitalised heart failure (Diuretics No): 53/1602
- Hazard ratio for hospitalised heart failure (Diuretics No): 1.26
- 3-point MACE: hazard ratio vs placebo (Diuretics Yes): 0.97
- 3-point MACE: patients with event/patients analyzed (Diuretics Yes): 275/1892
- Key secondary kidney outcome: hazard ratio vs placebo (Diuretics Yes): 1.04
- Key secondary kidney outcome: patients with event/patients analyzed (Diuretics Yes): 198/1892
- Patients with event/patients analysed, hospitalised heart failure (Diuretics Yes): 156/1892
- Hazard ratio for hospitalised heart failure (Diuretics Yes): 0.83
- 3-point MACE: hazard ratio vs placebo [7]: 1.01
- 3-point MACE: patients with event/patients analyzed [7]: 73/696
- Key secondary kidney outcome: hazard ratio vs placebo [7]: 0.94
- Key secondary kidney outcome: patients with event/patients analyzed [7]: 56/699
- Patients with event/patients analysed, hospitalised heart failure [7]: 42/696
- Hazard ratio for hospitalised heart failure [7]: 0.96
- 3-point MACE: hazard ratio vs placebo [8]: 0.98
- 3-point MACE: patients with event/patients analyzed [8]: 45/521
- Key secondary kidney outcome: hazard ratio vs placebo [8]: 1.97
- Key secondary kidney outcome: patients with event/patients analyzed [8]: 41/521
- Patients with event/patients analysed, hospitalised heart failure [8]: 18/521
- Hazard ratio for hospitalised heart failure [8]: 0.82
- 3-point MACE: hazard ratio vs placebo (Duration of type 2 diabetes ≥10 years): 1.03
